Laboratory results published in patent publication US9345677B2, “Compositions, methods and kits relating to HER-2 cleavage” (Incyte Corporation, priority 2003, dated 2016).

What was measured:
[1] = test system: BT-474-SC1 tumor xenografts; assay: Tumor volume in BT-474-SC1 xenograft model; format: in vivo, mice
Method: For the BT-474-SC1 tumor model (see Results below), slow-release estrogen pellets (Innovative Research of America) were inserted subcutaneously (s.c.) into the flank of each mouse 24 hours prior to tumor cell inoculation. Balb/C nude and SCID-bg mice were obtained from Charles River Laboratories. Cells were harvested from their tissue culture plates, counted, centrifuged, and resuspended in serum free growth media and BD Matrigel™ at a 1:1 ratio immediately prior to implantation. In either one or two locations, 1−2×10^7 viable BT-474-SC1 cells were injected s.c. into the upper flank of each mouse. For all models, tumors were measured on a weekly basis and their volumes calculated using the formula [volume=(length×width^2)÷2]. Once the mean tumor volume of the required number of mice reached the desired size (usually >150 mm^3), they were randomized into treatment groups usually containing between 6 and 12 mice. Animals were then treated with compound or vehicle (10% DMAC, 30% propylene glycol) by mini-osmotic pump (Alzet, Cupertino, Calif.) implanted i.p. or s.c. for 7 to 28 days to achieve the desired compound exposure—controlled by altering the pump flow rate and/or the concentration of compound inside the pumps. Tumor size and body weights (a measure of animal health) were monitored weekly. Blood samples were also drawn (retro-orbital) while the osmotic pumps were functional and plasma was separated by centrifugation and stored at −80° C. for later pharmacokinetic and/or ELISA analysis, to determine the levels of circulating Her-2 ECD (described above). Note that in experiments designed to evaluate the effects of compound treatment on levels circulating Her-2 ECD, blood samples were drawn on the day osmostic pumps were implanted (day 0) and then again six days later (day 6).

[2] = test system: circulating Her-2 ECD; assay: Plasma Her-2 ECD ELISA in BT-474-SC1 xenograft mice; format: in vivo
Method: For the BT-474-SC1 tumor model (see Results below), slow-release estrogen pellets (Innovative Research of America) were inserted subcutaneously (s.c.) into the flank of each mouse 24 hours prior to tumor cell inoculation. Balb/C nude and SCID-bg mice were obtained from Charles River Laboratories. Cells were harvested from their tissue culture plates, counted, centrifuged, and resuspended in serum free growth media and BD Matrigel™ at a 1:1 ratio immediately prior to implantation. In either one or two locations, 1−2×10^7 viable BT-474-SC1 cells were injected s.c. into the upper flank of each mouse. For all models, tumors were measured on a weekly basis and their volumes calculated using the formula [volume=(length×width^2)÷2]. Once the mean tumor volume of the required number of mice reached the desired size (usually >150 mm^3), they were randomized into treatment groups usually containing between 6 and 12 mice. […] Tumor size and body weights (a measure of animal health) were monitored weekly. […]
To measure levels of circulating Her-2 ECD in mice, plasmas were isolated from the blood samples described above and analyzed shortly after harvesting or stored frozen at −80° C. until analysis. To assess Her-2 ECD levels, plasma samples were diluted 1:5 and analyzed using a commercially available Her-2 ELISA kit per manufacturer's instructions (Oncogene Research, catalog #QIA10). […]

[3] = test system: Her-2 sheddase; assay: Her-2 ECD ELISA of BT474 culture supernatants (Her-2 sheddase inhibition); format: cell-based, human
Method: BT474 cells were seeded in 100 μL of RPMI medium containing 10% FCS+10 μg/ml insulin in 96 well plates at 2×10^4 cells/well. The cells were incubated overnight at 37° C. The following morning, the media was removed and 100 μL of fresh media with or without compound was added back. The cells were incubated for about 72 hours at 37° C. After about 72 hours, the supernatants were removed. The samples were diluted 1:10 and analyzed using a commercially available Her-2 ELISA kit per manufacturer's instructions (Oncogene Research, catalog #QIA 10).
These inhibitors were added, at varying concentrations, to cultures of BT474 cells, a Her-2 overexpressing breast cancer cell line known to enzymatically process cell surface Her-2 (p185) and release the extracellular domain (ECD) into the culture supernatant, i.e., shedding of ECD. After 72 hours, cell culture supernatants were harvested and assayed for Her-2 ECD content using an ELISA assay.

O=C(NO)[C@H]1CC2(CC2)CN[C@@H]1C(=O)N1CC=C(c2ccccc2)CC1 [Compound 3, (6S,7S)-6-{[4-phenyl-3,6-dihydropyridin-1(2H)-yl]carbonyl}-N-hydroxy-5-azaspiro[2.5]octane-7-carboxamide]
tumor growth over a 28-day period ([1]; BT474-SC1 model, vehicle tumors tripled in size): complete suppression of tumor growth

COC(=O)N1CC2(CC2)C[C@H](C(=O)NO)[C@H]1C(=O)N1CCN(c2ccccc2)CC1 [Compound 2, methyl (6S,7S)-7-[(hydroxyamino)carbonyl]-6-[(4-phenylpiperazin-1-yl)carbonyl]-5-azaspiro[2.5]octane-5-carboxylate]
level of circulating ECD on day 6 compared to vehicle ([2]; BT-474-SC1 tumor bearing mice, osmotic pump, p<0.0001): significantly lower | magnitude of change in ECD ([2]; day 6): 56% | tumor size on day 6 compared to vehicle ([1]; BT474-SC1 xenograft, p=0.0001): significantly smaller | magnitude of change in tumor volume ([1]; day 6): 27% | partial remission (greater than a 25% reduction in tumor volume) ([1]; day 6): multiple tumors demonstrated a partial remission

CC1(C)SCCN(S(=O)(=O)c2ccc(Oc3ccncc3)cc2)[C@H]1C(=O)NO [Compound 7, Prinomastat, reference compound]
IC50 [3]: 0.02 to 0.1 µM
